Results taken from patent publication US8440800B2, “Compositions for reducing cell adhesion to bubbles” (The Ohio State University Research Foundation, priority 2006, dated 2013).
Where two headings read alike, the source gives them in different places.

Legend:
[1] = CMC and static surface tension, maximum bubble pressure method; format: physicochemical; conditions: for CMC: 37° C., CD CHO-A medium; for CMC SURFACE TENSION: cell culture medium at 37° C.
Method: (§1) The CMC depends on temperature and solution components. Given the significant number of components in typical cell culture media, the CMC of the comparative materials and the protective compositions were determined at 37° C. and in CD CHO-A medium using a SensaDyne bubble tensiometer PC500L (Chem-Dyne Research Corporation, Mesa, Ariz.), which uses the maximum bubble pressure method. The time between initial bubble formation and attainment of maximum bubble pressure, “surface age”, can be varied by changing the gas flow rate. When the static surface tensions were measured, the surface age were adjusted to approximate 1 s, which was enough for small molecule surfactants to migrate to the bubble surface and potentially reach equilibrium. When the dynamic surface tensions were measured, the surface age was varied in the range of about 0.1 to about 3.0 seconds.

[2] = system: Chinese Hamster Ovary cells (CHO) cell line K1; test: Fluorescent cytotoxicity screening, 96-well plates, calcein AM; format: cell-based
Method: (§2) Chinese Hamster Ovary cells (CHO) cell line K1 (ATCC CCL-61) were used. The cells were initially cultured in Ham F-12 culture medium supplemented with 10% v/v fetal bovine serum (Sigma Aldrich Co., St. Louis, Mo.) in T-75 flasks. Then the cells were gradually adapted to chemically-defined medium (CD CHO-A, Invitrogen, Carlsbad, Calif.), which contain no PF-68. The cells were subcultured every 3-4 days and maintained at 37° C. incubator with 5% CO2. All the cultures were anchorage-dependent.
The materials were compared at the same concentration relative to the specific surfactants critical micelle concentration, CMC, i.e., 0.01 CMC or 0.1 CMC. In order to minimize the effect of potential adsorption during filter sterilization, the concentrated material solutions were applied, and then diluted to desired concentration at time of use.
Black, clear-bottom 96-well plates (Fisher Scientific, Hampton, N.H.) were used in the screening experiments. In each well, 150 μl cell suspensions with a total cell number of approximately 10^4 were inoculated along with the test materials and subsequently cultured in a 37° C. incubator with 5% CO2. After 48 hours, the supernatant was carefully removed while the attached CHO cells remained at the bottom of the well. 100 μl of 4 μM calcein AM solution (Invitrogen, Carlsbad, Calif.), a fluorescence probe, was added to each well and incubated for one hour at 37° C. in order to quickly assess cell growth (Yang et al., 2002). Calcein AM is an esterase substrate which can be converted into a polar, fluorescent product by an intracellular enzyme. The fluorescence density was read by a Cytofluor 4000 (Applied Biosystems, Foster City, Calif.). Six replications were performed for each condition (type of material and concentration) and the positions on the 96 well plates were randomized. A reasonable linear relationship between cell number (less than 5×10^5 per well) and fluorescence density was confirmed before screening experiments; however, a control was created with each specific experiment.

red blood cells = conditions: cited from earlier work
[3] = system: Chinese Hamster Ovary cells (CHO) cell line K1; test: Cytotoxicity studies in T25 flasks (cell growth); format: cell-based; conditions: T-25 flasks, 48 hours; concentrations of FIG. 6
Method: as §2
Various candidate materials from the 96 well plate assays were further investigated using T25 flasks. The concentration of the candidate materials were tested at discrete concentration, which depended on the specific material, but at the highest concentration exceeded 0.1 CMC. In all cases, tested, a concentration at which cell growth began to be inhibited was detected.
Additional protective compositions, Nonyl maltopyranoside (NM) and CYMAL®-4 (CM4), were purchased from Anatace Inc. (Maumee, Ohio). The inoculation was 3.0×10^5 cells/ml. After 48 hours, the cells were harvested by Accutase® (Innovative Cell Technologies Inc., San Diego, Calif.) and counted by a hemocytometer. Besides cell growth, the morphology of cells was also monitored by an inverted microscope (Nikon Ecllipse TE2000-U, Melville, N.Y.).

CHO K1 cells = test: Bubble-cell interactions, cell enrichment factor in foam (bubble collector, LDH); format: cell-based, Chinese Hamster
Method: An improved bubble collector device described by Ma et al. (2004) was used to quantitatively study cell entrapment in the foam. Specifically, this device can isolate bubble rupture events from foam formation vessel as well as maintain a plug-flow of bubbles from the foam layer into the bubble collection tube.
The cell concentration was determined using the lactate dehydrogenase (LDH) assay (CytoTox 96, Promega, Madison, Wis.). 9% (w/v) Triton X-100 solution was added to the cell suspension to be evaluated at a ratio of 1 to 10, and subsequently incubated at 37° C. for 45 minutes in order to lyse all the cells. A standard curve between LDH absorption and cell concentration by hemocytometer measurement was made for each set of experiments. The foam liquid volume was also measured by weighing the collect tube before and after experiments, assuming a liquid density of 1.0 g/ml.
For the bubble column studies, CHO K1 cells, grown in CD-CHO medium, were harvested during exponential phase of growth in spinner flasks. […]
Two spargers, a 22 gauge needle and a sintered glass (ACE glass, Vineland, N.J.) provided bubbles which produced, as expected, two different bubble sizes. The bubbles sizes were determined using a SCIMAX CCD digital camera (MVIA, Monaca, Pa.) and an infinity lens (ISCO Precision Optics GMBH, Germany) in a glass square column. […]

[4] = Dynamic surface tension in cell culture medium; format: physicochemical; conditions: 0.28 g/L
Method: as §1

[5] = Bubble size for two spargers (CCD camera); format: physicochemical
Method: Two spargers, a 22 gauge needle and a sintered glass (ACE glass, Vineland, N.J.) provided bubbles which produced, as expected, two different bubble sizes. The bubbles sizes were determined using a SCIMAX CCD digital camera (MVIA, Monaca, Pa.) and an infinity lens (ISCO Precision Optics GMBH, Germany) in a glass square column. The cell enrichment factor can be defined as the ratio of total LDH concentration in the foam liquid to that in the bulk liquid after lysing all the cells.
Consistent with the techniques used by Ma et al. (2004), the effectiveness of the protective compositions with respect to cell-bubble interactions was evaluated using the bubble collection device. Prior to the studies with cells, the size of the bubbles generated using a sintered glass sparger and a 22 gauge needle and two different concentrations of the PF-68® comparative material and the protective composition NM were determined.

Row | CMC [1] [mM] | HEAD GROUP SIZE [1] [Å^2] | CMC SURFACE TENSION [1] [DYN/CM] | SMILES | other results
1 | 7.6 | – | – | OC[C@H]1O[C@H](O[C@H]2[C@H](O)[C@@H](O)[C@H](OCCCCC3CCCCC3)O[C@@H]2CO)[C@H](O)[C@@H](O)[C@@H]1O [CM4, 4-Cyclohexyl-1-butyl-β-D-maltoside] | –
2 | 6.4 | – | – | CCCCCCCCCC[N+](C)(C)[O-] [DDeAO, N,N-Dimethyldecyl amine N-oxide] | –
3 | 12.2 | – | – | CCCCCCCCCCOS(=O)(=O)[O-].[Na+] [SDeS, Sodium decyl sulfate] | –
4 | 11.0 | – | – | CCCCCCCCS[C@@H]1O[C@H](CO)[C@@H](O)[C@H](O)[C@H]1O [OT, n-Octyl-β-D-thioglucopyranoside] | –
5 | 2.3 | 32 | 31.5 | CCCCCCCCCCO[C@@H]1O[C@H](CO)[C@@H](O)[C@H](O)[C@H]1O [DG, n-Decyl-β-D-glucopyranoside] | Toxicity relative to maltose head group analogue of same alkyl chain length [2]: more toxic
6 | 85.6 | – | – | CCCCCCCCOS(=O)(=O)[O-].[Na+] [SOS, Sodium octyl sulfate] | –
7 | 24.5 | 61 | 41.5 | CCCCCCCCO[C@@H]1O[C@H](CO)[C@@H](O[C@H]2O[C@H](CO)[C@@H](O)[C@H](O)[C@H]2O)[C@H](O)[C@H]1O [OM, n-Octyl-β-D-maltopyranoside] | Toxicity to red blood cells (red blood cells): less toxic to red blood cells than the OG comparative material; Maximum concentration before inhibitory effects on cell growth was observed [3]: 3.5 g/L
8 | 1.8 | 42 | 38.9 | CCCCCCCCCCO[C@@H]1O[C@H](CO)[C@@H](O[C@H]2O[C@H](CO)[C@@H](O)[C@H](O)[C@H]2O)[C@H](O)[C@H]1O [DM, n-Decyl-β-D-maltopyranoside] | Effect on decrease of the enrichment factor (CHO K1 cells; 0.28 g/L): less than PF-68® comparative material and the protective composition NM; Time to achieve equilibrium surface tension [4]: approximately 0.5 second; Maximum concentration before inhibitory effects on cell growth was observed [3]: 0.28 g/L
9 | 6 | 59 | 40.1 | CCCCCCCCCO[C@@H]1O[C@H](CO)[C@@H](O[C@H]2O[C@H](CO)[C@@H](O)[C@H](O)[C@H]2O)[C@H](O)[C@H]1O [NM, n-Nonyl-β-D-maltopyranoside] | Effect on cell enrichment factor (CHO K1 cells; 1.0 g/L): slightly decreases the enrichments factor further; Median Diameter of bubbles ([5]; 22 gauge needle (large bubble), 0.6 g/L): 2.7 mm; Median Diameter of bubbles ([5]; 22 gauge needle (large bubble), 1.0 g/L): 2.5 mm; Median Diameter of bubbles ([5]; sintered glass sparger (microbubble), 0.6 g/L): 159 μm; Median Diameter of bubbles ([5]; sintered glass sparger (microbubble), 1.0 g/L): 157 μm; Maximum concentration before inhibitory effects on cell growth was observed [3]: 1.0 g/L
10 | 27.1 | 40 | 32.5 | CCCCCCCCO[C@@H]1O[C@H](CO)[C@@H](O)[C@H](O)[C@H]1O [OG, n-Octyl-β-D-glucopyranoside] | Toxicity relative to maltose head group analogue of same alkyl chain length [2]: more toxic

Row | SMILES | CMC [1] [mM] | HEAD GROUP SIZE [1] [Å^2] | CMC SURFACE TENSION [1] [DYN/CM] | other results
11 | CCCCCCCCCCCCCCCC[N+](C)(C)C.[Br-] [CTAB, Hexadecyltrimethyl ammonium bromide] | 1.3 | – | – | Cytotoxicity (inhibition of cell growth, fluorescence intensity) [2]: most toxic to cells; Microscopic observation of cells [2]: completely lysed the cells
12 | CCCCCCCCCCCCOS(=O)(=O)[O-].[Na+] [SDS, Sodium dodecyl sulfate] | 2.3 | – | – | Cytotoxicity (inhibition of cell growth, fluorescence intensity) ([2]; 0.01 CMC and 0.1 CMC, 48 hours): inhibitory
13 | CCCCCCCCCCCC[N+](C)(C)[O-] [DDAO, N,N-Dimethyldodecyl amine N-oxide] | 2.0 | – | – | –
14 | CCCCCCCCCCCC[N+](C)(C)C.[Br-] [DTAB, Dodecyltrimethyl ammonium bromide] | 7.0 | – | – | Cytotoxicity (inhibition of cell growth, fluorescence intensity) ([2]; 0.01 CMC and 0.1 CMC, 48 hours): most toxic to cells; Microscopic observation of cells ([2]; at the lowest concentration): completely lysed the cells
